Measured values as given in patent publication US20200046654A1, “BUPROPION AND PHARMACEUTICAL COMPOSITION FOR TREATING CANCER AND METHOD FOR INHIBITING MIGRATION OF TUMOR CELLS” (NATIONAL CHIAO TUNG UNIVERSITY, priority 2018, published 2020).

Legend:
MDA-MB-231 cells [1] = assay: cell invasion assay (Matrigel invasion chambers); type: cell-based, human; conditions: 48 hours, with or without nicotine
Experimental: The inhibitory effect of bupropion on tumor invasion was tested by cell invasion assay. MDA-MB-231 cells were plated on to Matrigel invasion chambers in serum-starved medium, and the cells in the lower chamber were cultured using normal medium. The media in both of the upper and the lower chambers contained 0.1 μM bupropion, or 1 μM bupropion, and the cells were treated with or without (control group) nicotine. After the cells were cultured for 48 hours, the upper chambers were washed with PBS and fixed with formaldehyde for 30 minutes. The cells in the upper chambers were stained with crystal violet for two hours, and photos were acquired under a microscope. The numbers of invading tumor cells were calculated by ImageJ software.

MDA-MB-231 cells [2] = assay: cell migration assay, MDA-MB-231; type: cell-based, human; conditions: 12 hours, with or without nicotine
Experimental: (§1) MDA-MB-231 cells well treated with or without (control group) nicotine, DMSO, 0.1 μM, and 1 μM bupropion were then respectively added to the cells. Twelve hours after bupropion addition, the cells were fixed with formaldehyde, and stained with PI for 30 minutes; then photos of the cells were acquired. The numbers of migrating cells were calculated by imageJ software. This assay was repeated 3 times.

MDA-MB-453 = assay: cell migration assay, MDA-MB-453; type: cell-based, human
Experimental: as §1
In addition, a HER2 overexpression subtype of a breast cancer cell line, MDA-MB-453, was used to test the inhibitory effect of bupropion on tumor migration. The experimental method was the same as the cell migration assay of Example 7 above.

[3] = system: MDA-MB-231 cells with a luminescence reporter gene; assay: MDA-MB-231-based spontaneous pulmonary metastasis animal model; type: in vivo, SCID mice; conditions: two months; for number of the migrating tumor cells to the lungs (photon flux): bupropion i.p. three times a week, 100 or 200 μg per kilogram
Experimental: MDA-MB-231 cells with a luminescence reporter gene were implanted into severe combined immunodeficiency (SCID) mice. The nicotine treatment was carried out by adding nicotine (10 μg/ml) to the drinking water of the mice. The mice were injected intraperitoneally with bupropion three times a week at doses of 100 or 200 μg per kilogram. After two months, the mice were sacrificed and the lungs were dissected. IVIS was used to take the luminescence images of the lungs. The photon influx measured in the images represents the metastasis level of the mouse tumor cells to the lung tissue.

CHRNA9/CFP and ERBB2/YFP = CHRNA9/CFP and ERBB2/YFP (Homo sapiens, UniProt Q9UGM1)
Sequence of CHRNA9/CFP and ERBB2/YFP (Q9UGM1 23-479): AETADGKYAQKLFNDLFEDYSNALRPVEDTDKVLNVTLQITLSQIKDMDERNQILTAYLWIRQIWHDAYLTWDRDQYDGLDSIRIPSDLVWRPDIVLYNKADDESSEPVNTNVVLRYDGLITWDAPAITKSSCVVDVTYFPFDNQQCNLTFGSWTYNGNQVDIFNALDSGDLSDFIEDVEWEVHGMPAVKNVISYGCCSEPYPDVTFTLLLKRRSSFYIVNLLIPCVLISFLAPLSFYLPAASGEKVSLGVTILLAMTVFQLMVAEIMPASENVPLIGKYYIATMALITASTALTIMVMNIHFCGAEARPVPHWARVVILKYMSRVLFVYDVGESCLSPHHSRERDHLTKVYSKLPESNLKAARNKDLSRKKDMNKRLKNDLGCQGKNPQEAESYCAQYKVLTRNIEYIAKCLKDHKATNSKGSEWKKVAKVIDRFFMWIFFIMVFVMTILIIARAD
Text: In order to further investigate the interaction between CHRNA9 and ERBB2 ex vivo, a plasmid expressing CHRNA9/CFP and a plasmid expressing ERBB2/YFP were constructed and then co-transfected into MDA-MB-231 cells. FRET and fluorescence-lifetime imaging microscopy (FLIM) were used.
To further clarify whether CHRNA9 and ERBB2 are dissociated after nicotine exposure, two-photon FLIM was used to monitor the FRET activity between CHRNA9/CFP and ERBB2/YFP. The plasmids expressing CHRNA9/CFP and the plasmids expressing ERBB2/YFP were co-transfected into MDA-MB-231 cells. After two days, the cells were treated with 10 μM nicotine.

CHRNA9/ERBB2 complex = CHRNA9/ERBB2 complex (Homo sapiens, UniProt Q9UGM1); conditions: oral nicotine, at 30 minutes of exposure, vs before exposure
Sequence of CHRNA9/ERBB2 complex (Q9UGM1 23-479, one chain of several): as the sequence (Q9UGM1 23-479) above
Text: Split luciferase complementation assay was used to investigate the association and dissociation between CHRNA9 and ERBB2.
The N terminal (Nluc) and the C terminal (Cluc) of luciferase were respectively constructed with ERBB2 and CHRNA9 to form the plasmids expressing the fusion proteins. When ERBB2 and CHRNA9 interact with each other, the Nluc and the Cluc are also close to each other to assemble together, and present luciferase activity. Therefore, after Luciferin addition, luminescence can be generated. When ERBB2 and CHRNA9 dissociate from each other, the Nluc and Cluc also dissociate from each other; therefore, no luciferase activity exists.
Then a xenograft animal model was used. Plasmids expressing ERBB2/Nluc fusion protein and plasmids expressing CHRNA9/Cluc fusion protein were co-transfected into MDA-MB-231 cells, then the cells expressing the fusion proteins were injected into the mammary pads of nude mice.

SMILES: CC(NC(C)(C)C)C(=O)c1cccc(Cl)c1 (stereo not drawn) [bupropion]
- invasion of MDA-MB-231 cells (MDA-MB-231 cells [1]; 0.1 μM bupropion): significantly inhibited
- invasion of MDA-MB-231 cells (MDA-MB-231 cells [1]; 1 μM bupropion): significantly inhibited
- migration of MDA-MB-231 cells (MDA-MB-231 cells [2]; 0.1 μM bupropion): significantly inhibited
- migration of MDA-MB-231 cells (MDA-MB-231 cells [2]; 1 μM bupropion): significantly inhibited
- migration of MDA-MB-453 cells (MDA-MB-453; 0.1 μM bupropion): significantly inhibited
- migration of MDA-MB-453 cells (MDA-MB-453; 1 μM bupropion): significantly inhibited
- number of the migrating tumor cells to the lungs (photon flux) ([3]; nicotine-free mice): significantly decreased
- number of the migrating tumor cells to the lungs (photon flux) ([3]; nicotine-treated mice): significantly decreased

SMILES: CN1CCCC1c1cccnc1 (stereo not drawn) [nicotine]
- FRET activity on the cell membrane between CHRNA9/CFP and ERBB2/YFP (CHRNA9/CFP and ERBB2/YFP; after 10 μM nicotine exposure, MDA-MB-231 cells): gradually decreased
- FRET activity on the membrane after removal of nicotine (CHRNA9/CFP and ERBB2/YFP; cells washed with PBS to remove nicotine): gradually recovered to the baseline
- number of the metastatic tumor cells in the lung tissues (photon flux) ([3]; nicotine 10 μg/ml in drinking water): significantly increased
- photon influx (luciferase activity in tumor region) relative to control group (CHRNA9/ERBB2 complex): 26.3%
